Test results: paper PMC7139830, “Drug Conjugation Induced Modulation of Structural and Membrane Interaction Features of Cationic Cell-Permeable Peptides” (International Journal of Molecular Sciences, 2020)
Read-outs that look alike come from different tables or passages of the source.

How the values were obtained:
[1] = Analytical RP-HPLC retention time on C-18 column as indicator of polarity; assay type: physicochemical; settings: chromatographic, YMC-Pack ODS-A C18 (5 µm, 120 Å) 150 × 4.6 mm; gradient 5% B 2 min, 5%–100% B 20 min; A 0.1% TFA in water, B 0.1% TFA in acetonitrile/water 80/20; 1 mL/min; UV 220 nm
Source text: Cationic membrane active peptides and their INH-derivatives were synthesized in good yields, using previously described methods. Peptides were characterized with their monoisotopic molecular mass (M), retention time on a C-18 RP-HPLC column (Rt), estimated hydrophilicity values (H) and net charge (z) (see Table 1). Peptides are listed according to their retention times, which are the indicator of their polarity. […] This order of peptides’ polarity is almost equal to the relative hydrophilicity estimated from the amino acid composition. […] That might be the result of decreased charge due to INH coupling at the N-terminal, although the addition of INH molecule is expected to increase the polarity of the conjugate.
Purified peptides were analyzed by RP-HPLC, on an analytical C-18 column, using gradient elution with the abovementioned eluent A and B (flow rate was 1 mL/min, UV detection at λ = 220 nm). Molecular mass of the peptides was determined on a Thermo Scientific Q Exactive™ Focus Hybrid Quadrupole-Orbitrap™ Mass Spectrometer (ThermoFisher Scientific, Waltham, MA, USA).

[2] = AFM imaging of penetrated DPPC lipid layer; assay type: physicochemical; settings: DPPC monolayer, AFM cross-section profiles
Source text: At the end of the membrane affinity measurements, the penetrated monolayers were transferred to a previously cleaned cover glass, to study the structural changes of the membranes by atomic force microscopy (Figure 5 and Figure 6). The surface of the original DPPC and mixed DPPC+mycolic acid monolayer is rather smooth, with a morphology described by typical roughness values presented in Table 2. (Ra is the average deviation of all points from a mean level over the evaluation area. Rq (RMS) is the root mean square roughness, while Rz is the average absolute value of the five highest peaks and the five lowest valleys over the evaluation area, being sensitive to positive or negative extremes of the image.) Well-defined homogenous lipid islands are formed by the ordered lipid molecules in equilibrium with the less-oriented film with smaller surface density as expected from the surface pressure–area isotherm. Comparing to this, the morphology of the penetrated monolayers was changed. The 3D images provide a visual impression on the surface, while the cross-section profiles allow the measurement of the height differences. […] This morphological change can also be expressed by the roughness factors determined by analyzing the AFM images (Table 2).
Penetrated Langmuir monolayers were transferred to a previously cleaned hydrophilic cover glass for atomic microscopy measurements. […]

[3] = AFM imaging of penetrated DPPC+mycolic acid lipid layer; assay type: physicochemical; settings: DPPC+mycolic acid film, AFM cross-section profiles
[4] = system: Mycobacterium tuberculosis H37Rv in infected MonoMac-6 human monocytes; assay type: cell-based
EBC-1 cells = assay type: cell-based, human

Substance | Rt, retention time on C-18 RP-HPLC column (indicator of polarity) [1] | further results
CM15 | 13.7 | –
GIGKFLHSAKKFGKAFVGEIMNS [Magainin II, antimicrobial peptide isolated from amphibians] | 12.8 | –
INH-GIGKFLHSAKKFGKAFVGEIMNS [INH–Magainin II, isoniazid conjugated to the N-terminus of Magainin II via glyoxylic acid linker] | 13.3 | –
INH-KRLFKKLLFSLRKY [INH–Dhvar4, isoniazid conjugated to the N-terminus of Dhvar4 via glyoxylic acid linker] | 12.8 | –
INH-RAGLQFPVGRVHRLLRK [INH–Buforin II (5–21), isoniazid conjugated to the N-terminus of Buforin II (5–21) via glyoxylic acid linker] | 11.0 | –
INH-RQIKIWFQNRRMKWKK [INH–Penetratin, isoniazid conjugated to the N-terminus of Penetratin via glyoxylic acid linker] | 11.5 | Height of aggregates / protrusions in penetrated layer [2]: 1–3 nm; Height of aggregates / vertical deviation in penetrated layer [3]: exceeding 3 nm; Intracellular antitubercular activity [4]: efficient candidate against intracellular Mycobacterium tuberculosis
INH-TKPKGTKPKGTKPKGTKPKG [INH–OT20, isoniazid conjugated to the N-terminus of OT20 via glyoxylic acid linker] | 7.0 | –
KRLFKKLLFSLRKY [Dhvar4, synthetic derivative of Histatin, a salivary histidine-rich cationic AMP] | 11.8 | –
RAGLQFPVGRVHRLLRK [Buforin II (5–21), antimicrobial peptide isolated from amphibians] | 10.9 | –
RQIKIWFQNRRMKWKK [Penetratin, cell-penetrating peptide] | 10.9 | Subcellular localization (EBC-1 cells; Cf-labeled peptides, 60 min incubation, EBC-1 cells, confocal microscopy): diffused intracellular distribution
TKPKGTKPKGTKPKGTKPKG [OT20, synthetic oligomer of Tuftsin, cationic carrier peptide] | 6.7 | –
Transportan | – | Subcellular localization (EBC-1 cells): mostly vesicular localization
